# Test results published in patent publication US7034005B2, “Use of agent for suppressing infection and proliferation of human immunodeficiency syndrome virus” (The Kitasato Institute, priority 2002, dated 2006).
# Assays:
# [1] = tested on: HIV-1BAL strain in M type macrophage (M-MΦ) derived from human monocytes; test: Proliferation of HIV-1 in M-MΦ: p24 protein in culture supernatant by sandwich ELISA; type: cell-based; conditions: for suppression of viral generation (p24 in culture supernatant) in M-MΦ: 30 μM, HIV-1BAL, 14 days of culture, compared with DMSO control (FIG. 13); for viral proliferation at 300 μM in M-MΦ: also observed in DMSO control, ascribed to cytotoxicity of DMSO; for concentration dependence of suppressive action on HIV-1BAL in M-MΦ: various concentrations (FIG. 16)
# Method: (§1) Macrophages derived from monocytes were prepared by culturing the recovered monocytes in the presence of M-CSF (macrophage colony-stimulating factor) (10^4 U/ml, provided by Morinaga Milk Co.), granulocytes and granulocyte-macrophage colony-stimulating factor, GM-CSF) (500 U/ml, provided by Japan Scheling Plough Co., Osaka, or purchased from R & S Genzyme-TECHNE Inc.) with RPMI1640 medium added with FCS10% (Nissui Seiyaku Co., Tokyo) for 7–8 days.
# (§2) The macrophage prepared by differential induction of M-CSF from human monocytes is designated as M type macrophage (M type MΦ or M-MΦ) and the macrophage prepared by differential induction of GM-CSF from human monocytes is designated as GM type macrophage (GM type MΦ or GM-MΦ) Further, alveolar macrophage (alveolar MΦ or A-MΦ) was prepared as follows. Cells in the alveolar lavage liquid obtained from the alveolar lavage of healthy volunteers were recovered, suspended and adhered to plastics, then the non-adhered cells were washed out and the remained adhered cells were designated as the alveolar MΦ.
# (§3) Infection of HIV-1 to macrophage was performed as follows. Macrophage directed viral strains, HIV-1JR-FL and HIV-1BAL, were infected for 2 hours in contact with M-MΦ, GM-MΦ and A-MΦ (adjusted to 2.5×10^5/well, Flacon No3043: Becton Dickinson Labware, Inc. U.S.)at low concentration (p24 antigen titer 50 ng/ml, TCID50=3000/ml virus to final concentration at 100 pg/ml), and non-adsorbed virus to the macrophage was washed out, and cultured with adding fresh medium. In case of the medium with M-MΦ, M-CSF was added (10^4 U/ml), and that of the medium with GM-MΦ, GM-CSF was added (500 U/ml).
# (§4) Proliferation of virus was examined with the released viral particles in the culture supernatant after the infection by the sandwich ELISA using two types of anti-p24 antibody (Nu24 and 10B5^13). The following JAM62 and JAM65 were used as LTR (HIV long terminal repeat)-gap gene primer. The following JAM63 and JAM 64 were used as the internal primer for the nested PCR. • JAM62: • 5′-[…]-3′ (SEQ ID NO: 1) • JAM65: • 5′-[…]-3′ (SEQ ID NO: 2) • JAM63: • 5′-GTGTOACTCTGGTAACTAGAGATCC-3′ (SEQ ID NO: 3) • JAM64: • 5′-[…]-3′ (SEQ ID NO: 4) (1-4) Assay of Expression of Tyrosine Kinase Hck Protein and Transcription Factor C/EBPβ Protein
# (§5) In order to show growth suppression effect of the present invention, among macrolide derivatives, EM, EM201, EM202, EM703, CAM, EM722, EM730, EM732, EM736, EM734, EM735, EM747, EM748, EM743, EM746, EM750 or EM751 was dissolved in DMSO with each 100 mM concentration, and used in dilution with the medium thereafter. A control group was M-MΦ treated only with DMSO used for dissolving macrolide derivatives.
# (§6) M-MΦ and GM-M Φ were subjected to contact infection with HIV-1BAL strain for 2 hours, added 30 μM of EM, EM201, EM202, EM703, CAM,EM722, EM730, EM732, EM736, EM734, EM735, EM747, EM748, EM743, EM746, EM750 or EM751, incubated for 14 days and amount of p24 protein in the cultured supernatant was assayed in the time-dependent manner.
# [2] = tested on: HIV-1BAL strain in GM type macrophage (GM-MΦ) derived from human monocytes; test: Proliferation of HIV-1 in GM-MΦ: p24 protein in culture supernatant by sandwich ELISA; type: cell-based; conditions: for viral generation in GM-MΦ: 30 μM, HIV-1BAL, all assay points up to 14 days, similar to DMSO control (FIG. 14)
# Method: as §1, §2, §3, §4, §5, §6
# [3] = tested on: HIV-1BAL strain infected M-MΦ; test: Cytopathy (MGC formation) of HIV-1 infected M-MΦ; type: cell-based, human; conditions: 30 μM, HIV-1BAL (FIG. 17)
# Method: Formation of cell cluster and cell fusion was observed from the 2nd day of the incubation only in virus producing M-MΦ and formation of multinucleatic giant cells were recognized from the culture day 4–7 [refer to FIG. 2(A)]. On the other hand, in GM-MΦ without generation of virus, nomorphological changes were observed [refer to FIG. 2(B)].
# M-MΦ was subjected to contact infection with HIV-1BAL strain for 2 hours, added 30 μM of EM, EM201, EM202, EM703 or CAM, incubated and observed the cell morphology.
# [4] = tested on: tyrosine kinase Hck protein; test: Expression of tyrosine kinase Hck protein in M-MΦ by Western blotting; type: cell-based, human; conditions: 30 μM, day 2 after HIV-1BAL infection, compared with DMSO control (FIG. 18)
# Text: (§7) Expression of tyrosine kinase Hck protein and transcription factor C/EBPβ protein in macrophage was examined after solubilizing the macrophage in SDS-PAGE sample buffer, performing 10% SDS-polyacrylamide electrophoresis, transferring the protein on the gel to immobilon P membrane (Millipore Inc. U.S.) and checking antibodies against these proteins by Western blotting. Antibody to tyrosine kinase Hck protein (N-30) and antibody to C/EBPβ (C-19) were purchased from Santacluse Inc. (U.S.). Western blotting was detected by Amersham ELC Regent (Amersham International plc, Buckinghamshire, UK). Strength of bands was expressed by PSL (photostimulating luminescence) value (A/mm^2).
# (§8) These probes were dissolved in the serum free RPMI1640 medium, in which lipofectin (Life Technology Inc., U.S.) was dissolved at 5 μM concentration, at room temperature for 30 minutes, added with RPMI1640 medium, which contains 10% FCS, to the macrophage (final concentration 2 μM) and incubated at 37° C. for 24 hours. Thereafter, cells were washed with the medium, added the RPMI1640 medium containing 10% FCS without oligonucleotide, further cultured for 24 hours, and then infected with HIV-1.
# Consequently, M-MΦ was subjected to contact infection with HIV-1BAL strain for 2 hours, added 30 μM of EM, EM201, EM202, EM703 or CAM, incubated and expression of tyrosine kinase Hck protein was observed on day 2 after the infection by Western blotting.
# p38MAPK = test: Tyrosine phosphorylation (activation) of p38MAPK in HIV-1 infected M-MΦ by Western blotting; type: cell-based, human; conditions: 30 μM, day 2 of culture, HIV-1BAL infected M-MΦ, compared with DMSO (FIG. 19(A))
# Method: (§9) P38MAPK and ERK1/2 activation were determined using P38MAPK antibody, anti-ERK1/2 antibody, anti-tyrosine phosphorylation P38MAPK antibody and anti-tyrosine phosphorylation ERK1/2 antibody (New England Biolabs, Inc. U.S.), and phosphorylation reaction of these molecules was determined by Western blotting.
# Thirty μM of EM, EM201, EM202, EM703 or CAM were added to M-MΦ infected with HIV-1BAL strain, tyrosine phosphorylation of p38MAPK was detected on day 2 of the culture by Western blotting. […] In any groups, total amount of p38MAPK (total sum of phosphorylated and non-phosphorylated p38MARK) was equal.
# ERK1/2 = test: Tyrosine phosphorylation (activation) of ERK1/2 in HIV-1 infected M-MΦ by Western blotting; type: cell-based, human; conditions: 30 μM, HIV-1BAL infected M-MΦ, compared with DMSO (FIG. 19(B))
# Method: as §9
# In any groups, total amount of ERK1/2 (total sum of phosphorylated and non-phosphorylated p38MARK) was equal [refer to FIG. 19(B)].
# [5] = tested on: transcription factor C/EBPβ protein; test: Expression of C/EBPβ protein in GM-MΦ by Western blotting; type: cell-based, human; conditions: oligonucleotide treated GM-MΦ (FIG. 11)
# Text: as §7, §8
Compound,proliferation of virus in M-MΦ at 3 μM ([1]; 3 μM),suppression of viral generation (p24 in culture supernatant) in M-MΦ [1],viral proliferation at 300 μM in M-MΦ [1],concentration dependence of suppressive action on HIV-1BAL in M-MΦ [1],viral generation in GM-MΦ [2],cytopathic effect (MGC formation) in HIV-1 infected M-MΦ [3],expression of tyrosine kinase Hck protein in HIV-1 infected M-MΦ [4],tyrosine phosphorylation of p38MAPK (p38MAPK),tyrosine phosphorylation of ERK1/2 (ERK1/2),HIV-1 growth promotion (p24 in culture supernatant) in oligonucleotide pretreated GM-MΦ ([2]; HIV-1 infection after pretreatment (FIG. 12)),changes in expression of C/EBPβ in GM-MΦ [5]
"CCC(O)C(C)(O)C1OC(=O)C(C)C(OC2CC(C)(OC)C(O)C(C)O2)C(C)C(OC2OC(C)CC(NC)C2O)C2(C)CC(C)=C(O2)C1C (stereo not shown) [EM703, de(3′-N-methyl)-8,9-anhydro-pseudoerythromycin A 6,9-hemiketal]",inhibited almost completely the proliferation of virus,almost no p24 was detected,viral proliferation at 300 μM was observed,concentration dependent manner,almost no viral generation was recognized,no cytopathic effect such as MCG formation was observed,strongly suppressed,significantly decreased,promotion of tyrosine phosphorylation of ERK1/2 was recognized,,
"CCC1OC(=O)C(C)C(O[C@H]2C[C@@](C)(OC)[C@@H](O)[C@H](C)O2)C(C)C(O[C@@H]2O[C@H](C)C[C@H](N(C)C)[C@H]2O)C(C)(O)CC(C)C(=O)C(C)C(O)C1(C)O (stereo partly shown) [EM, reference compound]",,"suppression of viral generation was recognized, though not so strong",viral proliferation at 300 μM was observed,exhibited suppression of viral production depending upon drug concentration,almost no viral generation was recognized,formation of MGC was slightly recognized,"the suppression of tyrosine kinase Hck protein was observed, though not so strong","recognized to decrease, though not so strong",weakly recognized as same in the control group,,
"C/EBPβ-S: Phosphorothioate-modified sense oligonucleotide probe of C/EBPβ, 5′-CCGCGTTCATOCAACOCCTG-3′ (SEQ ID NO: 9) (sense CCGCGTTCATGCAACGCCTG; all phosphorothioate, sugars by position and methylation of C not given here) [reference compound]",,,,,,,,,,not recognized,not recognized
